Data reported in US7071205B2 (Ligand Pharmaceuticals Incorporated, priority 2002, dated 2006).
Like-named read-outs stand apart in the source and are kept apart here.

Assays:
hPR [1] = molecular target: T1, hPR (Homo sapiens, UniProt P06401); assay: Cotransfection assay, PR agonist activity in CV-1 cells; assay type: cell-based; details: for PR Agonist CV-1 Cells Efficacy (%): MTV-LUC reporter, percent maximal response relative to progesterone
T1 sequence (P06401 1-933): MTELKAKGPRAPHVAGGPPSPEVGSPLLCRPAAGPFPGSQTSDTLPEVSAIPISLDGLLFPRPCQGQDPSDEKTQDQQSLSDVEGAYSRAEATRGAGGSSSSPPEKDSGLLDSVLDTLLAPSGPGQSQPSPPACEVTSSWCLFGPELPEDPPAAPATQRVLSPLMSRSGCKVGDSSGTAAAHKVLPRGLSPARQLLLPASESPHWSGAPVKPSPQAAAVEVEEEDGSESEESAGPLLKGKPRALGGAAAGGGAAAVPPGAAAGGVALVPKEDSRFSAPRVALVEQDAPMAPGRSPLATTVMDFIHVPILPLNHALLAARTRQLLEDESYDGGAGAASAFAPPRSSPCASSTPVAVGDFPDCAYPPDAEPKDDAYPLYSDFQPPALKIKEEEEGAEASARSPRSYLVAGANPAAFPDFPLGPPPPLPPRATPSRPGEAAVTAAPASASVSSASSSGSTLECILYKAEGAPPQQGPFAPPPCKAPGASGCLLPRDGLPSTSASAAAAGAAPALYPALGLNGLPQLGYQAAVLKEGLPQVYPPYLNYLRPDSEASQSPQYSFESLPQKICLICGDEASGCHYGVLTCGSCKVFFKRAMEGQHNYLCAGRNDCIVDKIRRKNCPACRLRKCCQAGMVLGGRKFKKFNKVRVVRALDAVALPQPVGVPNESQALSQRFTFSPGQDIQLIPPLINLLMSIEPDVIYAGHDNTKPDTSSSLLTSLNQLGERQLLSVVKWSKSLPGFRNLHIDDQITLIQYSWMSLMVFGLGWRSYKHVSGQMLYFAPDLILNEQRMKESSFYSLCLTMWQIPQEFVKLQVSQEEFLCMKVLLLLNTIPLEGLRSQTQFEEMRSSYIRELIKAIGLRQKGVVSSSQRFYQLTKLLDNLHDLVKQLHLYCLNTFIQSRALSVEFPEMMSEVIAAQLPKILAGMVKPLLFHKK

hPR [2] = molecular target: T1, hPR; assay: Cotransfection assay, PR antagonist activity in CV-1 cells; assay type: cell-based; details: for IC50: antagonist potency IC50; for PR Antagonist CV-1 Cells Efficacy (%): percent maximal response relative to reference antagonist
hPR-A = molecular target: T2, hPR-A (Homo sapiens, UniProt P06401); assay: Receptor competitive binding assay
T2 sequence (P06401 1-769 isoform P06401-2): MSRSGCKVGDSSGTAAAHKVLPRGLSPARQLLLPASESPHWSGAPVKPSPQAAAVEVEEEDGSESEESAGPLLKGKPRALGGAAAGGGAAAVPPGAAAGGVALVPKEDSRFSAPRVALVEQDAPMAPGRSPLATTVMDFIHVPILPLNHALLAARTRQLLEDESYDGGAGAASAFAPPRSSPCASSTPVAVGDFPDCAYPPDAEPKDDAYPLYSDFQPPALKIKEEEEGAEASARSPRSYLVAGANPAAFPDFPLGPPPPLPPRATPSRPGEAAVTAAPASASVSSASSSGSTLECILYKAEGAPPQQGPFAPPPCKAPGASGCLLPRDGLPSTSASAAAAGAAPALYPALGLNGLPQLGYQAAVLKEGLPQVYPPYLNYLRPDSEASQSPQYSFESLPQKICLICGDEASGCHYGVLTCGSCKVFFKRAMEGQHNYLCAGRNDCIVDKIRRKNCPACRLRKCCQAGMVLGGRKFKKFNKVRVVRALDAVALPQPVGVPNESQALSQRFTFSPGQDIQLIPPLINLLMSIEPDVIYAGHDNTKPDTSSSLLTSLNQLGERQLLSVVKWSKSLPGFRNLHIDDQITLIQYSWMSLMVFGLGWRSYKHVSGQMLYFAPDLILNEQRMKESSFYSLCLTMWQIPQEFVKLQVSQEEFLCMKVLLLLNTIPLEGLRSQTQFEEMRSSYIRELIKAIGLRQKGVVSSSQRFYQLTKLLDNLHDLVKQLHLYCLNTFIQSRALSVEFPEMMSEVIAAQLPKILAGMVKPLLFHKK

immature rabbits = assay: McPhail (Clauberg) assay of progestational activity; assay type: in vivo, rabbit; details: minimum active dose; estradiol-primed immature rabbits, uterine glandular changes
Description: The in vivo activity of selected hPR modulator compounds of the present invention were evaluated utilizing the McPhail assay, according to the following illustrative Examples. The Clauberg or McPhail assay is a classic assay utilizing rabbits to measure progestational activity. […] This is followed by treatment with a progestin, which causes a large change in the glandular content of the uterus. It is this change in the glandular component, which is a measure of the progestational activity of a progestin. The measurement of these glandular changes are carried out histologically using stained sections of the uterus. The in vivo potency of the progestins is presented as the minimum active dose (MAD) in mg/kg.

[3] = CV-1 cells, agonist potency EC50, read-out: PR Agonist CV-1 Cells Potency
[4] = Table 2, repeats PR agonist potency of Table 1, read-out: EC50
[5] = Table 2, repeats PR binding Ki of Table 1, read-out: ki

| PR Agonist CV-1 Cells Efficacy (%) (hPR [1]; CV-1 cells) | EC50 (hPR [1]; [3]) | EC50 (hPR [1]; [4]) | IC50 (hPR [2]) | Ki (hPR-A; [5]) | Ki (hPR-A; hPR-A, read-out: PR Binding Ki) | Structure (SMILES) | PR Antagonist CV-1 Cells Efficacy (%) (hPR [2]) | MAD (immature rabbits) |
| --- | --- | --- | --- | --- | --- | --- | --- | --- |
| 168% | 3.6 nM | 3.6 nM | > 10 µM | 6.4 nM | 6.4 nM | CC1=CC(C2Oc3ccc(F)cc3-c3ccc4c(c32)C(C)=CC(C)(C)N4)CCC1 (racemic) [Compound 24, (±)-(5l,1′l)-5-(3-methyl-2-cyclohexenyl)-9-fluoro-1,2-dihydro-2,2,4-trimethyl-5H-chromeno[3,4-f]quinoline] | na (na = not active (i.e. efficacy of <20 and potency of >10,000)) | 0.25 mg/kg |
| 139% | 3.4 nM | 3.4 nM | > 10 µM | 3.9 nM | 3.9 nM | CC1=CC(C)(C)Nc2ccc3c(c21)C(C1CCC(C)=C1C)Oc1c(F)cc(F)cc1-3 (racemic) [Compound 71, (±)-(5l,1′l)-5-(2,3-dimethyl-2-cyclopentenyl)-7,9-difluoro-1,2-dihydro-2,2,4-trimethyl-5H-chromeno[3,4-f]quinoline] | na (na = not active (i.e. efficacy of <20 and potency of >10,000)) | 0.25 mg/kg |
| 166% | – | – | – | – | – | CC1=CC(C2Oc3c(F)cc(F)cc3-c3ccc4c(c32)C(C)=CC(C)(C)N4)CCC1 (single isomer, unassigned; (-)) [Compound 38, (−)-(5l,1′l)-5-(3-methyl-2-cyclohexenyl)-7,9-difluoro-1,2-dihydro-2,2,4-trimethyl-5H-chromeno[3,4-f]quinoline] | na (na = not active (i.e. efficacy of <20 and potency of >10,000)) | 0.10 mg/kg |
